The results in this text go back to ChEMBL document CHEMBL1201862, “PubChem BioAssay data set” (2004).

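How tested: cells in 96-well plates exposed to compound for 48 hours at five concentrations. GI50 is the concentration that inhibits growth by half.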 Activity calls are given as the source filed them. Rule as the data show it: active = GI50 up to about 1.1 µM and inactive = higher.

Test systems include HCC 2998; A498; MDA-MB-435; HCT-15; CAKI-1; SK-MEL-28; RXF 393; OVCAR-8; HOP-62; NCI-H522; PC-3; OVCAR-3; OVCAR-4; RPMI-8226; HOP-92; SK-MEL-2; IGROV-1; EKVX; U-251.
What all share (assay): inhibition of tumour cell growth, NCI panel, 48 h

Take `O=C1OC(C2(O)OC(=O)c3ccccc32)c2ccccc21` (centres undefined): the GI50 in the assay on HCC 2998 was > 100 µM (inactive); with A498 it was > 100 µM (inactive); in the assay on MDA-MB-435 it was > 100 µM (inactive); in the assay on HCT-15, above 100 µM; in the assay with CAKI-1, > 100 µM (inactive); in the assay with SK-MEL-28, > 100 µM (inactive). The GI50 in the assay with RXF 393, with OVCAR-8, with HOP-62, in the assay on NCI-H522, with PC-3 and with OVCAR-3 was > 100 µM (inactive) throughout. Moreover, the GI50 with OVCAR-4 is > 100 µM (inactive); with RPMI-8226, > 100 µM (inactive); with HOP-92, > 100 µM (inactive); in the assay with SK-MEL-2, > 100 µM (inactive); in the assay with IGROV-1, > 100 µM (inactive); in the assay with EKVX, 62.4 µM (inactive). Further, in the assay on U-251, the GI50 is > 100 µM (inactive).

`Nc1nc(Nc2ccccc2)c2[nH]cnc2n1`: the GI50 is 86.3 µM (inactive) with HCC 2998; 20.3 µM (inactive) with A498; > 100 µM (inactive) with MDA-MB-435; 52 µM in the assay with HCT-15; 49.2 µM (inactive) in the assay on CAKI-1; > 100 µM (inactive) with SK-MEL-28. For the same compound, the GI50 was > 100 µM (inactive) in the assay on RXF 393; > 100 µM (inactive) in the assay with OVCAR-8; > 100 µM (inactive) with HOP-62; 65.5 µM (inactive) in the assay with NCI-H522; > 100 µM (inactive) in the assay with PC-3; 89.9 µM (inactive) with OVCAR-3. Besides, the GI50 with OVCAR-4 was > 100 µM (inactive); in the assay with RPMI-8226 it was 53.7 µM (inactive); in the assay with HOP-92 it was 32.2 µM (inactive); in the assay with SK-MEL-2, 66.2 µM (inactive); with IGROV-1, 32 µM (inactive); in the assay with EKVX, > 100 µM (inactive). Also, the GI50 in the assay with U-251 was > 100 µM (inactive).

Regarding `Oc1ccc(/C=N/NC(=S)Nc2cccnc2)nc1`, the GI50 is > 51.1 µM (inactive) in the assay with HCC 2998; 33.7 µM (inactive) with A498; 5.9 µM (inactive) in the assay with MDA-MB-435; 5.27 µM in the assay with HCT-15; 20.7 µM (inactive) in the assay with CAKI-1; 6.18 µM (inactive) in the assay on SK-MEL-28. Moreover, the GI50 is 2.79 µM (inactive) with OVCAR-8; 12 µM (inactive) with HOP-62; 1.97 µM (inactive) with NCI-H522; > 22 µM (inactive) in the assay with PC-3; 1.07 µM (active) in the assay on OVCAR-3; > 76.6 µM (inactive) in the assay with OVCAR-4. The GI50 in the assay on RPMI-8226 was 16.7 µM (inactive); in the assay with HOP-92 it was 5.38 µM (inactive); in the assay with SK-MEL-2, 7.08 µM (inactive); with IGROV-1, 14.7 µM (inactive); with EKVX it was 12.6 µM (inactive); with U-251, 6.22 µM (inactive).

With `Cc1ccc2c(c1)-c1c(C#N)c(N)nc(-c3ccccc3)c1CCS2(=O)=O`, the GI50 is 8.13 µM (inactive) in the assay with HCC 2998; 8.71 µM (inactive) with A498; 1.72 µM (inactive) in the assay on MDA-MB-435; 4.54 µM in the assay with HCT-15; 10.5 µM (inactive) in the assay with CAKI-1; 11.8 µM (inactive) with SK-MEL-28. Also, the GI50 is 11.7 µM (inactive) in the assay with OVCAR-8; 6.95 µM (inactive) in the assay on HOP-62; 1.12 µM (inactive) with NCI-H522; 13.4 µM (inactive) in the assay with PC-3; 5.47 µM (inactive) in the assay on OVCAR-3; 52 µM (inactive) in the assay with OVCAR-4. Further, the GI50 in the assay with RPMI-8226 is 4.56 µM (inactive); in the assay with HOP-92, 56.5 µM (inactive); in the assay on SK-MEL-2, > 29.2 µM (inactive); in the assay with IGROV-1, 5.31 µM (inactive); with EKVX it was 18.7 µM (inactive); in the assay on U-251, 8.22 µM (inactive).

In the case of `COCc1cc2c(cc1/C=C/[N+](=O)[O-])OCO2`, the GI50 in the assay on HCC 2998 was 17.5 µM (inactive); in the assay on A498, 17 µM (inactive); with MDA-MB-435 it was 18.3 µM (inactive); with HCT-15, 19.7 µM; with CAKI-1, 19.6 µM (inactive); with SK-MEL-28 it was 11 µM (inactive). Besides, the GI50 was 18 µM (inactive) in the assay on RXF 393; 23 µM (inactive) with OVCAR-8; 20.7 µM (inactive) with HOP-62; 19.2 µM (inactive) in the assay with NCI-H522; 12.1 µM (inactive) with PC-3; 19.4 µM (inactive) with OVCAR-3. The GI50 in the assay on RPMI-8226 is 76 µM (inactive); with HOP-92 it was 18.8 µM (inactive); with IGROV-1 it was 22.8 µM (inactive); with EKVX, 17.8 µM (inactive); in the assay on U-251, 17.7 µM (inactive).

`COC(=O)/C=C\n1c(C)cc(=O)[nH]c1=O`: the GI50 was > 100 µM (inactive) with HCC 2998; > 100 µM (inactive) in the assay with A498; > 100 µM (inactive) with MDA-MB-435; above 100 µM in the assay with HCT-15; > 100 µM (inactive) with SK-MEL-28; > 100 µM (inactive) in the assay with RXF 393. For the same compound, the GI50 with OVCAR-8, in the assay on HOP-62, with NCI-H522, in the assay with PC-3, with OVCAR-3 and in the assay on OVCAR-4 was > 100 µM (inactive) each time. Further, the GI50 in the assay on RPMI-8226, with HOP-92, in the assay with SK-MEL-2, with IGROV-1, with EKVX and in the assay on U-251 was > 100 µM (inactive) in each case.

For `Nc1ccc(Oc2ccc(C34CC5CC6C3CC3CC4C(C5)C6(c4ccc(Oc5ccc(N)cc5)cc4)C3)cc2)cc1`, the GI50 in the assay on HCC 2998 is 18 µM (inactive); in the assay on A498, 22.2 µM (inactive); in the assay with MDA-MB-435, 0.376 µM (active); in the assay on HCT-15, 21.8 µM; with CAKI-1 it was 19 µM (inactive); with SK-MEL-28 it was 0.714 µM (active). Also, the GI50 in the assay with RXF 393 was 18.6 µM (inactive); in the assay with OVCAR-8, 31.9 µM (inactive); with HOP-62, 18.3 µM (inactive); in the assay on NCI-H522, 12.8 µM (inactive); in the assay on PC-3 it was 8.26 µM (inactive); in the assay with OVCAR-3, 6.5 µM (inactive). In addition, the GI50 with OVCAR-4 is 11.1 µM (inactive); in the assay on RPMI-8226, 13 µM (inactive); in the assay with HOP-92, 2.9 µM (inactive); in the assay on SK-MEL-2 it was 4.37 µM (inactive); in the assay on IGROV-1, 23.8 µM (inactive); in the assay on EKVX it was 11.5 µM (inactive). Also, in the assay on U-251, the GI50 was 2.9 µM (inactive).

Regarding `N#Cc1c(N)c2c(c(-c3ccccc3)c1-c1ccccc1)C(=O)N(Nc1ccccc1)C2=O`, the GI50 in the assay on HCC 2998 was 35.8 µM (inactive); with A498 it was 28.4 µM (inactive); in the assay with MDA-MB-435, 68.5 µM (inactive); in the assay with HCT-15, 45.7 µM; in the assay on CAKI-1, 63.1 µM (inactive); with SK-MEL-28 it was 46.6 µM (inactive). In addition, the GI50 with RXF 393 was 19.3 µM (inactive); in the assay on OVCAR-8, 78.3 µM (inactive); with NCI-H522 it was 58.6 µM (inactive); in the assay with PC-3, 28.3 µM (inactive); in the assay on OVCAR-3 it was 21.7 µM (inactive); in the assay with OVCAR-4, 35.1 µM (inactive). Further, the GI50 in the assay on RPMI-8226 is 29.5 µM (inactive); in the assay on HOP-92, 48.1 µM (inactive); with SK-MEL-2, 30.1 µM (inactive); in the assay on IGROV-1 it was 34.8 µM (inactive); with EKVX, 42.4 µM (inactive); in the assay on U-251 it was 93.5 µM (inactive).

On to `CO[C@H]1C[C@@H]2CC[C@@H](C)[C@@](O)(O2)C(=O)C(=O)N2CCCC[C@H]2C(=O)O[C@H]([C@H](C)C[C@@H]2CC[C@@H](OC(=O)C(C)(CO)CO)[C@H](OC)C2)CC(=O)[C@H](C)/C=C(\C)[C@@H](O)[C@@H](OC)C(=O)[C@H](C)C[C@H](C)/C=C/C=C/C=C/1C` [TEMSIROLIMUS], for which the GI50 is 1.82 µM (inactive) in the assay with HCC 2998; 0.0363 µM (active) with A498; 0.0243 µM (active) in the assay with MDA-MB-435; 0.0849 µM in the assay on HCT-15; 0.0142 µM (active) in the assay on CAKI-1; 0.0298 µM (active) with SK-MEL-28. The GI50 is 0.0034 µM (active) in the assay with RXF 393; 0.00388 µM (active) in the assay on OVCAR-8; 0.00125 µM (active) in the assay on HOP-62; 0.0802 µM (active) with NCI-H522; 0.00123 µM (active) in the assay on PC-3; 0.00183 µM (active) in the assay with OVCAR-3. The GI50 with OVCAR-4 is 0.0247 µM (active); in the assay with RPMI-8226, 0.000292 µM (active); in the assay on HOP-92, 0.00254 µM (active); with SK-MEL-2, 0.051 µM (active); with EKVX, 0.0185 µM (active).

On to `COc1ccc(-c2nnc(CCCCCCCCc3nnc(-c4ccc(OC)cc4)n3N)n2N)cc1`, for which the GI50 was > 100 µM (inactive) with HCC 2998; > 65.3 µM (inactive) in the assay on A498; > 100 µM (inactive) in the assay with MDA-MB-435; above 100 µM with HCT-15; > 100 µM (inactive) in the assay on CAKI-1; > 100 µM (inactive) in the assay with SK-MEL-28. Also, the GI50 in the assay on OVCAR-8 is > 31.6 µM (inactive); in the assay on HOP-62 it was 28.2 µM (inactive); with NCI-H522, > 56.5 µM (inactive); in the assay on PC-3 it was > 100 µM (inactive); in the assay on OVCAR-3, > 100 µM (inactive); with OVCAR-4 it was > 100 µM (inactive). The GI50 with RPMI-8226 is > 100 µM (inactive); in the assay on HOP-92 it was > 39.3 µM (inactive); in the assay on SK-MEL-2, > 81.5 µM (inactive); in the assay with IGROV-1, > 96.6 µM (inactive); with EKVX, > 100 µM (inactive); in the assay with U-251, > 56.9 µM (inactive).

As for `O=c1[nH]nc(-c2ccccc2)n1-n1cnnc1`, the GI50 in the assay on HCC 2998 is > 100 µM (inactive); in the assay with A498 it was > 100 µM (inactive); in the assay with MDA-MB-435 it was > 100 µM (inactive); in the assay with HCT-15 it was above 100 µM; with CAKI-1, > 100 µM (inactive); in the assay on RXF 393, > 100 µM (inactive). In addition, the GI50 in the assay with OVCAR-8, in the assay on HOP-62, with NCI-H522, with PC-3, in the assay on OVCAR-3 and in the assay with OVCAR-4 was > 100 µM (inactive) in each case. Also, the GI50 with RPMI-8226, in the assay with HOP-92, in the assay on SK-MEL-2, in the assay on IGROV-1, with EKVX and in the assay on U-251 was > 100 µM (inactive) in each case.
